For this assay, the target named is SidJ (Legionella pneumophila, UniProt Q5ZTK6). Put plainly: biochemical.
SidJ, sequence (Q5ZTK6 whole entry, looked up): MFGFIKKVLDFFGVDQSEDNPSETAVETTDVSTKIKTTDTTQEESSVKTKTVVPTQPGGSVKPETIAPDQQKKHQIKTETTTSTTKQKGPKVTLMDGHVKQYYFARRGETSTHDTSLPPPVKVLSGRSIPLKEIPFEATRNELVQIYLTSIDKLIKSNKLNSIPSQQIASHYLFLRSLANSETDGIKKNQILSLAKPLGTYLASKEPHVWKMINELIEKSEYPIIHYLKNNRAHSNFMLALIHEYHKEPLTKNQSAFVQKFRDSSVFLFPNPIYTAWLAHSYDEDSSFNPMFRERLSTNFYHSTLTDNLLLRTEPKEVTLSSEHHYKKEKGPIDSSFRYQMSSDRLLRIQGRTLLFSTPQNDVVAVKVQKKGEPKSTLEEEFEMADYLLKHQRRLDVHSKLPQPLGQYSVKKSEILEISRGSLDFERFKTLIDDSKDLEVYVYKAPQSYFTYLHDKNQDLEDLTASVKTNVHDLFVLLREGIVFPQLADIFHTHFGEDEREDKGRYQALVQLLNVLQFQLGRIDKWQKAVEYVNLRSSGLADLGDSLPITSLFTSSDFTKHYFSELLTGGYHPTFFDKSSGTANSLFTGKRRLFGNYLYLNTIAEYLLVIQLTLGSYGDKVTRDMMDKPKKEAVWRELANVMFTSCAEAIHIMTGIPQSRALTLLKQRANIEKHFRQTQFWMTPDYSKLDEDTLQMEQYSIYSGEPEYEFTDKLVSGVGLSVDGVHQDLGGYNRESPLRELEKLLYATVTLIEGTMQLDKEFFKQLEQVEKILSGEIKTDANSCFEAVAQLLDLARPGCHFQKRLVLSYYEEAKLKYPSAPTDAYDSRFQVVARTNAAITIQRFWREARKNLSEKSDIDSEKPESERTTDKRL

In turn, `Nc1ncnc2c1ncn2[C@@H]1O[C@H](COP(=O)(O)OP(=O)(O)OP(=O)(O)O)[C@@H](O)[C@H]1O` [ATP] showed a Kd of 1450 nM.
